# Experimental data reported in patent US7534915B2, “Non-symmetrical gelling agent” (Applied Nanosystems B.V., priority 2003, dated 2009).
# Assays:
# [1] = Cryo-TEM and small angle x-ray diffraction of hydrogel fibers; format: physicochemical
# Experimental: Cryo-transmission Electron Microscopy Measurements
# A gel was prepared following one of the procedures described above. A small amount of the gel was carefully deposited on a bare copper grid, using a spatula. The excess solution was blotted with a filter paper, leaving a thin sample film. The grid was subsequently plunged into liquid ethane for vitrification. The vitrified specimens were transferred to a Gatan model 626 cryostage and observed in a Philips CM 120 electron microscope operating at 120 kV. The images were recorded under low-dose conditions at about −170° C. The samples were all prepared in duplo.
# Presumably, the lack of (C3-)symmetry prevents the aggregation of the fibers into large bundles from taking place, and leads to the highly uniform and very low fiber diameter, the latter in turn leading to clear gel.
# The left-side image is a low magnification, the right-side image a high magnification (white bar at the upper left-hand quarter in the right-side image corresponds to 4.5 nm). […] The high uniformity of the fiber thicknesses can be clearly observed in the close-up image on the right.
# α-chymotrypsin = experiment: α-chymotrypsin-induced cleavage followed by fluorescence detection of released 6-AQ; format: biochemical; conditions: for Km / Vmax: from Lineweaver-Burke and Eadie-Hofstee plots, for 12 only points where V still increased; for Cleavage (6-AQ formation) by α-chymotrypsin: substrate 7.54 mM (12 as gel, 39 as solution), α-chymotrypsin 40 mM as printed
# Source text: In order to investigate the enzymatic cleavage of a gelator-drug conjugate, we selected the enzyme α-chymotrypsin, which is capable of cleaving amide bonds at the C═O terminus of L-phenylalanine-based substrates like compound 12 (CHex(AmPhe-6AQ)(AmEtOEtOH)2), resulting here in the release of the fluorogenic “model drug” 6-aminoquinoline (6-AQ). This system allows easy monitoring of the cleavage kinetics owing to the fact that the excitation and emission maxima for the amide and amino form of this compound are adequately separated (amide form: λex=315 nm, λem=370 nm, amine form: λex=339 nm, λem=550 nm).
# Gelator 12 was dissolved in a small amount of DMSO (100 μL), whereas α-chymotrypsin was dissolved in a buffer solution (Tris-HCl, 0.1 M, pH 7.75, 900 μL). […] In order to determine the effect of gelation on the enzymatic cleavage, the water-soluble, non-gelating, model substrate 39 was synthesized with a structure similar to that of gelator 12.
# Fluorescence experiments were carried out in which the α-chymotrypsin-induced cleavage of compounds 12 and 39 was followed through the detection of 6-AQ.
# Legend to FIG. 2 (from bottom to top): Trace a: gel of gelator 12 (0.5 wt %=7.54 mM); trace b: gel of gelator 12 (0.5 wt %=7.54 mM)+α-chymotrypsin ([…]); trace c: gel of gelator 12 (0.5 wt %=7.54 mM)+compound 39 (7.54 mM)+α-chymotrypsin (40 μM); trace d: solution of compound 39 (7.54 mM)+α-chymotrypsin (40 mM)
# Performing the cleavage experiments for both 12 and 39 at different substrate concentrations and plotting the initial rates as a function of the substrate concentration (i.e., 12 or 39) results in the points plotted in FIG. 3. […] The initial rates for gelator 12, however, increase up to a certain point, after which they remain the same, even at much higher concentrations. From the corresponding Lineweaver-Burke and Eadie-Hofstee plots, values for Vmax and Km could be obtained for both compounds. […] From these points, the following values were calculated. […] Using these values for Vmax and Km, the theoretical curves could be plotted for both compounds. For compound 39, the experimentally determined points fitted very well on the curve. […] Below this concentration, a sample of 12 exists as a solution. So, even though the molecules in a gel are in constant equilibrium with those in solution and the overall gelator concentration may increase well above the CGC (thus bringing about gelation), the concentration of gelator in solution can never exceed the CGC. The fact that the initial rate for 12 no longer increases once the substrate (i.e., gelator) concentration exceeds the CGC, proves that only the gelator molecules in solution can be cleaved by the enzyme.
# [2] = Gel test (vial inversion); format: physicochemical
# Experimental: A weighed amount of solid was dissolved in 0.5 or 1 ml of the solvent in a closed 2.0 ml vial using a heating gun or a heating block and subsequently slowly cooled to room temperature by standing in the air. Gelation was determined by turning the vial upside down and gentle shaking. If no flow of the mass was observed, the mass was defined to be a gel. Alternatively, a weighed amount of solid was dissolved in 1 mL of solvent by the addition of acid or base. The subsequent addition of base or acid then gave gelation. Alternatively, a weighed amount of solid was dissolved in a small amount of solvent. The subsequent addition of a large amount of non-solvent then gave gelation. Alternatively, the solution of gelator/thickener was added to the non-solvent, resulting in gelation. Alternatively, a weighed amount of solid was mixed with 1 mL of solvent by sonication. After stopping the sonication, gelation occurred. Alternatively a weighed amount of solid was mixed with 1 mL of solvent by brief vortexing after which gelation occurred. Alternatively a weighed amount of solid was mixed with 1 mL of solvent after which gelation occurred.
# [3] = TEM particle size of a compound of interest included in gels of gelator 12; format: physicochemical; conditions: for Crystal size, reference without gelator: DMSO/H2O 100 μL/900 μL
# Experimental: Transmission Electron Microscopy Measurements
# A gel was prepared following one of the procedures described above. A small amount of the gel was carefully deposited on a carbon-coated copper grid, using a spatula. The excess solution was blotted with a filter paper, leaving a thin sample film. The samples were examined using a JEOL 1200EX (80-100 kV) and pictures were taken of representative parts. The samples were all prepared in duplo.
# To a solution containing 4 mg (6.0×10^−3 mmol) of gelator 12 (CHex(AmPhe-6AQ)(AmEtOEtOH)2) and 1.22 mg (6.0×10^−3 mmol) of pyrene in 100 μL of DMSO, 900 μL of distilled water were quickly added.
# To determine the stability in time of pyrene particles in a gel, samples were prepared as described in the previous paragraph and examined with TEM after 7 days, 18 days, 1 month and 2 months. As reference, samples containing only pyrene in DMSO/H2O (100 μL/900 μL) were also prepared. Moreover, to determine the effect of the gelator in solution, i.e., not in the gel, samples containing 4 mg (6.0×10^−3 mmol) of gelator 12 (CHex(AmPhe-6AQ)(AmEtOEtOH)2), 1.22 mg (6.0×10^−3 mmol) of pyrene, 100 μL of DMSO and 900 μL of 1N HCl were prepared. […] All samples were kept at room temperature, in the dark.
# To a solution containing 1.96 mg (2.9×10^−3 mmol) of gelator 12 (CHex(AmPhe-6AQ)(AmEtOEtOH)2) and 1.0 mg (2.9×10^−3 mmol) of danazol in 50 μL of DMSO, 950 μL of distilled water were quickly added. […] In a reference sample consisting only of danazol in 100 μL of DMSO and 900 μL of distilled water, rod-shaped danazol particles are 0.5-10 μm wide and 15-53 μm long. […]
smiles,measurement,setting,value
"O=C(NCCOCCO)[C@@H]1C[C@H](C(=O)NCCOCCO)C[C@H](C(=O)N[C@@H](Cc2ccccc2)C(=O)Nc2ccc3ncccc3c2)C1 [Compound 12, CHex(AmPhe-6AQ)(AmEtOEtOH)2]",Gel fiber thickness,[1],about 4.5 nm
same,Km,α-chymotrypsin,1.8 mM
same,Vmax,α-chymotrypsin,4.1 µmol/min
same,Cleavage (6-AQ formation) in the absence of α-chymotrypsin,"α-chymotrypsin; gel 0.5 wt % = 7.54 mM, fluorescence at 550 nm",no cleavage
same,experimentally determined Vmax,α-chymotrypsin; plateau of initial rate above the CGC,1.8 µmol/min
same,Cleavage (6-AQ formation) by α-chymotrypsin,α-chymotrypsin,minor cleavage
same,Gel test,[2]; 0.3 mg/mL in H2O or PBS,clear gel
same,Gel test,[2]; 0.5 mg/mL in H2O/DMSO (19:1),clear gel
same,Gel test,[2]; 0.6 mg/mL in H2O/EtOH (19:1),clear gel
same,Gel formation,[2]; 4 mg with pyrene in DMSO 100 μL + 1N HCl 900 μL,does not gelate
same,Gel test,[2]; 25 mg/ml in EtOH,turbid gel
same,Gel formation,"[2]; DMSO 100 μL + α-chymotrypsin in Tris-HCl 0.1 M pH 7.75 900 μL, rapid addition","clear, homogeneous gel"
same,Critical gelator concentration (CGC),[2]; H2O:DMSO=9:1,1.5 mM
C#C[C@]1(O)CC[C@H]2[C@@H]3CCC4=Cc5oncc5C[C@]4(C)[C@H]3CC[C@@]21C [danazol],"Length of rod-shaped particles, reference without gelator",[3]; DMSO 100 μL + water 900 μL,15-53 μm
same,"Width of rod-shaped particles, reference without gelator",[3]; DMSO 100 μL + water 900 μL,0.5-10 μm
same,Presence of rod-shaped particles,"[3]; freeze-dried gel of 12, 5:1",no rod-shaped particles were present
same,Length of rod-shaped particles in gel,"[3]; gel of 12, 1:1, some particles",9 μm
same,Width of rod-shaped particles in gel,"[3]; gel of 12, 1:1, some particles",0.7 μm
same,Presence of rod-shaped particles,"[3]; gel of 12, 2:1",no rod-shaped danazol particles are present
same,Size of some particles in gel,"[3]; gel of 12, 2:1",2 μm
same,Size of very few particles in gel,"[3]; gel of 12, 2:1",10 μm
same,Presence of rod-shaped particles,"[3]; gel of 12, 5:1",no rod-shaped particles are present
same,Size of some particles in gel,"[3]; gel of 12, 5:1",400 nm
same,Average particle size in gel,"[3]; gel of 12, gelator:danazol 1:1, DMSO/water 50 μL/950 μL",140-700 nm
same,Average particle size in gel,"[3]; gel of 12, gelator:danazol 2:1",28 nm
same,Average particle size in gel,"[3]; gel of 12, gelator:danazol 5:1",14 nm
c1cc2ccc3cccc4ccc(c1)c2c34 [pyrene],"Crystal size, reference without gelator",[3]; after 2 months,2-12 μm
same,"Crystal size, reference without gelator","[3]; after 7 days, 18 days or 1 month",0.4-9 μm
same,Crystal size in gel,"[3]; gel of 12, 1:1, DMSO/H2O, after 1 month",~150 nm
same,Particle size in gel,"[3]; gel of 12, 1:1, DMSO/H2O, after 7 days, room temperature, dark",37-185 nm
same,Particle size in gel,"[3]; gel of 12, 1:1, DMSO/H2O, after 18 days",30-190 nm
same,"Crystal size, gelator in solution","[3]; with 12 1:1 in DMSO/1N HCl 100 μL/900 μL (not gelled), after 7 days",0.2-3 μm
same,"Size of larger crystals, gelator in solution","[3]; with 12 1:1 in DMSO/1N HCl (not gelled), after 1 month",6 μm
"O=C(O)CCCC(=O)N[C@@H](Cc1ccccc1)C(=O)Nc1ccc2ncccc2c1 [Compound 39, reference compound]",Km,α-chymotrypsin,4.9 mM
same,Vmax,α-chymotrypsin,22.3 µmol/min
same,Cleavage (6-AQ formation) by α-chymotrypsin,α-chymotrypsin,more readily cleaved
same,Solubility in water,[2],water-soluble
same,Gelation behaviour,[2]; water,non-gelating
"O=C(CNC(=O)[C@H](Cc1ccccc1)NC(=O)[C@@H]1C[C@H](C(=O)O)C[C@H](C(=O)O)C1)Nc1ccc2ccccc2c1 [Compound 27, CHex(AmPheAmGlyAmβNA)(COOH)2]",Gel test,"[2]; H2O, concentration not given",gel
